# Legend:
# Type in all cases: cell-based, mouse
# [1] = test system: primary OG2 neural progenitor cells; test: iPS cell induction from neural progenitor cells by retroviral transduction and BIX01294 treatment
# Experimental: The reporter neural progenitor cells were generated using a well established protocol by differentiating the Oct4-GiP mESCs grown in monolayer on gelatin in a chemically defined medium/CDM condition in the absence of serum and other growth factors/cytokines at low cell density for eight days, followed by neurophere formation and subsequent serial passaging in single cells in neural cell expansion media supplemented with 10 ng/ml of bFGF and EGF in monolayer for over six passages/24 days. The resulting neural progenitor cells were homogenous by cell morphology and neural marker expression, and were confirmed to be GFP negative and puromycin sensitive. Such neural progenitor cells plated in monolayer in conventional mESC growth media were transduced with combinations of four, three, or two of the four factors, followed by treating the transduced cells with individual small molecules from a small known drug collection in a typical 6-well format. The compound treatment and culture were continued for additional ten days before puromycin was added. The number of green and puro-resistant colonies was counted at day 14. In comparison to the only four-gene transduced neural cells as the positive control, compound conditions that generated more green colonies than the corresponding gene-only conditions were picked as primary hits. To further confirm these primary hit conditions, we chose to use a late passage of mouse CNS neural progenitor cells (Do, J. T. et al., Stem Cells 25, 1013-1020 (2007)) that were derived from fetal brain of OG2^+/−/ROSA26^+/− transgenic mice (which contain an Oct4-GFP reporter) and expanded in monolayer under the same neural CDM condition as the above with 10 ng/ml of bFGF and EGF. Such cells truly from a non-pluripotent tissue would be devoid of concerns of any contaminating ES cell in the above screening system, which is although highly unlikely with all appropriate controls. Similar culture conditions and reprogramming assays were performed using the OG2 neural progenitor cells except that puromycin was not used and green colonies were picked out and characterized by staining of Nanog, SSEA1 and ALP.
# mESC-derived or primary OG2 mouse neural progenitor cells were plated into Matrigel (1:50, BD Biosciences) coated 6-well plates at 3.5×10^4 cells/well in the neural progenitor cell expansion media. After one day these cells were transduced with retrovirus for overnight, and the medium was changed into the mESC growth media [DMEM, 5% FBS, 10% KSR, 1× non-essential amino acids (Gibco), 2 mM L-glutamine (Gibco), 0.1 mM β-mercaptoethanol (Gibco) and 10^3 unit/ml LIF (Chemicon)] with or without BIX01294 (0.5-1 μM). GFP-positive iPS cell colonies appeared after 9-14 days, and were picked out and expanded on MEF feeder cells with the mESC growth media.
# mES R1 cells = test: Proliferation assay; conditions: 2 μM BayK, 1 μM BIX or both; 15, 24 and 48 hours; compared to DMSO, n=3
# Experimental: mES R1 cells were plated onto gelatin-coated 6-well plates at a density of 2×10^5 cells/well in complete mES cell media. Upon cell attachment, app. 12 hours, the cells were treated either with DMSO, 1 μM BIX, 2 μM BayK, and a combination of both, in triplicate. At 15, 24 and 48 hours, the cells were detached using trypsin, and counted using a hemocytometer. Trypan blue (Sigma-Aldrich, St. Louis, Mo.) was used for dead cell exclusion.
# [2] = test system: 129 MEFs transduced with OK (Oct4 and Klf4); test: Screen for iPSC generation from OK-transduced 129 MEFs (ESC-like colony morphology, ALP staining)
# Experimental: Unmodified MEFs derived from E13-14 embryos of the 129 mice were used for the initial screen. MEFs were plated on Matrigel at 3.5×10^4 cells/well of a 6-well plate and transduced with OK (retroviral vectors expressing Oct4 and Klf4) alone. Within 14-21 days, treated cells were assessed for the appearance of colonies that had the characteristic embryonic stem cell (ESC), colony morphology and were positive for the pluripotency marker alkaline phosphatase (ALP). Such OK-transduced cells generated only a few small non-compact colonies, which were weakly positive for ALP expression. These colonies initially appeared within 21 days after viral transduction and were difficult to expand. Therefore, such assay system offered a clean background for the identification of small molecules having desirable reprogramming inducing activity. Using this system, compounds from a library of around 2000 known small molecules (see Experimental Procedures below) were screened and were identified as hits when they induced the appearance of ESC colonies that were strongly positive for ALP within 14-21 days after treatment. This image-based method provided a more accurate assessment of reprogramming as compared to homogenous reporter-based assay. BIX appeared to have the strongest effect with reproducible induction of more than 1-2 compact ESC-like colonies with high ALP expression. We observed that when MEFs were treated with BIX after OK viral transduction, compact colonies with strong ALP expression could be readily detected within approximately 14-21 days. These cells were also positive for Nanog, Oct4 and SSEA-1 expression. […] However, the reprogramming efficiency in MEFs transduced with OK and treated with BIX was still low, about 2 colonies/3.5×10^4 cells, in comparison to the four factor-induced reprogramming of MEFs or the OK/BIX NPC reprogramming (Shi, Y. et al., Cell Stem Cell, 2:525-528 (2008)). Therefore, we conducted a second screen using a similar protocol, but where BIX was added to the basal media after OK viral transduction. This provided a more permissive platform to identify new small molecules that could further improve reprogramming efficiency. More importantly, this second screen could facilitate discovery of small molecules that impact reprogramming in a more specific manner, for example by acting on signal transduction pathways rather than on histone or DNA modifying enzymes. In this second screen, we again assayed the library of around 2000 known small molecules (see Experimental Procedures), and confirmed two compounds that were able to act in a synergistic manner with BIX to improve reprogramming based on the criteria of the screen. […] Therefore, RG108 was not pursued further for this study. […]
smiles,measurement,setting,value
COc1cc2nc(N3CCCN(C)CC3)nc(NC3CCN(Cc4ccccc4)CC3)c2cc1OC [BIX01294],reprogramming efficiency,"[1]; Klf4/Sox2/cMyc with BIX01294, absence of Oct4 expression",relatively low
same,kinetics of reprogramming,"[1]; Oct4/Klf4 viral transduction, BIX01294 0.5-1 μM",didn't significantly shorten the kinetics of reprogramming
same,reprogramming efficiency (GFP+ iPS cell colonies),"[1]; Oct4/Klf4 viral transduction, BIX01294 0.5-1 μM, 3.5×10^4 cells/well",significantly improve the reprogramming efficiency to or higher than the level of using viral transduction of all four factors
same,time until GFP+ iPS cell colonies appeared,[1]; after transduction with Oct4/Klf4 retroviruses and BIX01294 treatment,12 days
same,generation of iPS cells,"[1]; viral transduction of Klf4, Sox2 and cMyc, absence of Oct4 expression, three factors alone gave no colony",can also generate iPS cells
same,proliferation of mES cells (cell number),mES R1 cells,No significant difference
same,reprogramming efficiency,[2]; MEFs transduced with OK and treated with compound,about 2 colonies/3.5×10^4 cells
same,number of ALP+ colonies that closely resemble the mESC morphology,[2]; OK-transduced MEFs,about 2 colonies
same,induction of compact ESC-like colonies with high ALP expression,"[2]; primary screen, compounds 0.5-2 μM, 14-21 days, 3.5×10^4 cells/well",1-2 colonies
